Experimental findings from EP4768492A1, “CAPPING COMPOUND, AND APPLICATION THEREOF IN MRNA CAPPING” (Jiangsu Synthgene Biotechnology Co., Ltd., priority 2023, dated 2025) are described below.

Data set [1] relates to mRNA. Description: mRNA in vitro transcription (IVT) yield with cap analog. It counts as biochemical. Conditions: mRNA yield of IVT reaction, 37 °C 2 h, purified mRNA quantified by Nanodrop One. The method, then: (§1) mRNA IVT reactions were performed using the cap analogs from the examples. Firstly, the required volumes of materials for the system were calculated, and then the samples were added (the IVT reaction system is shown in Table 1). Sterile enzyme-free water was added to the system, and then 10× buffer, NTPs, and the cap analog were sequentially added. The mixture was uniformly mixed and then gently centrifuged, followed by the addition of the nuclease inhibitor, the inorganic pyrophosphatase, the T7 RNA polymerase, and the linearized DNA template. The resulting mixture was thoroughly mixed, then gently centrifuged, and incubated at 37 °C. After 2 h, DNase I (1 U) was added, and the mixture was incubated at 37 °C for another 30 min to remove the DNA template. RNA purification was then performed using a magnetic bead purification method. The purified mRNA was dissolved in sterile enzyme-free water, and then quantitative detection was performed using Nanodrop One. Table 1. IVT reaction system

The test system of data set [2] is mRNA. Description: IVT capping rate of mRNA by LC-MS after RNase H cleavage. The class given is biochemical. The method, then:
as §1
Liquid chromatography-mass spectrometry (LC-MS) was used to detect the IVT capping rates of mRNAs with different starting cap analogs. Firstly, a labeled (usually biotin-labeled) DNA probe matched with the starting base of the transcribed mRNA product was required to be designed, and streptavidin-labeled magnetic beads were washed, and then incubated with the synthesized DNA probe, mRNA, and 10× RNase H reaction buffer with slow mixing at room temperature for 30 min. Subsequently, 20 µL of RNase H (5 U/µL) was added, and the mixture was incubated at 37 °C for 3 h, with uniform mixing every half hour. After the incubation was completed, the magnetic beads were washed, and then 100 µL of 75% methanol heated to 80 °C was added to the washed magnetic beads. The mixture was heated to 80 °C on a heating plate, held for 3 min, and then placed on a magnetic rack. The supernatant was pipetted and dried at room temperature for 45 min to 10 µL by using an evaporation centrifuge. The sample was then resuspended in 50 µL of 100 µM EDTA/1% MeOH for LC-MS analysis to determine the capping of RNA in the transcription reaction. Since capped and uncapped bases have a distinct difference in molecular weight, the capping rates of mRNA transcription processes initiated with different cap analogs can be determined by utilizing this difference in molecular mass.

For data set [3], the system named is mice. Description: mRNA translation efficiency in mice: LNP-mRNA by tail vein, luciferase in vivo imaging. As to conditions: 1 µg LNP-mRNA; for protein expression levels in mice: 24 hours after administration, compared to Comparative Example 1; for distribution after tail vein administration: mice, in vivo imaging (FIG. 1). As to the method: The tail of each mouse was gently wiped with an alcohol cotton ball, and 1 µg of an LNP-mRNA drug was injected via the tail vein using an insulin syringe. Twenty-four hours after the tail vein administration, the mouse was intraperitoneally injected with 10% chloral hydrate (anesthetized according to the mouse body weight, 50-60 µL/20 g). After the mouse was anesthetized, 150 µL of a prepared luminescent substrate (luminescent substrate concentration: 15 mg/mL, Cat. No. 2109GR001, brand: biofroxx) was intraperitoneally injected. Five minutes after the injection of the luminescent substrate into the mouse, the mouse was placed in a small animal in vivo imaging system. The corresponding luciferase channel was selected to capture an in vivo image of the mouse, and the image was saved. This procedure was repeated at other time points, and the exposure parameters should be kept consistent for comparison.

On to `CO[C@@H]1[C@H](OP(=O)(O)OC[C@H]2O[C@@H](n3cnc4c(=O)[nH]c(N)nc43)[C@H](O)[C@@H]2O)[C@@H](COP(=O)(O)OP(=O)(O)OP(=O)(O)OC2([C@H]3O[C@@H](n4c[n+](C)c5c(=O)[nH]c(N)nc54)[C@H](O)[C@@H]3OC)CC2)O[C@H]1n1cnc2c(N)ncnc21` [Compound 32], for which the “Yield (µg) in 20 µL system” value in data set [1] is given as 116 µg. Also, the “Capping rate (%)” value in data set [2] was 98.9%. Moreover, in data set [3], the “protein expression levels in mice” value is listed as “higher protein expression levels in mice compared to Comparative Example 1” and the “distribution after tail vein administration” value (from here on “distribution”) was “mainly distributed in the liver”.
As for `COCC1C(O)C(n2c[n+](C)c3c(=O)[nH]c(N)nc32)OC1C1CC1P(=O)(O)OP(=O)(O)OP(=O)(O)OCC1OC(n2cnc3c(N)ncnc32)C(OC)C1OP(=O)(O)OCC1OC(n2cnc3c(=O)[nH]c(N)nc32)C(O)C1O` (stereo not shown) [Compound 5], the “Yield (µg) in 20 µL system” value in data set [1] worked out at 110 µg. The “Capping rate (%)” value in data set [2] is 96.3%.
In the same order, the values of `COC1C(OP(=O)(O)OCC2OC(n3cnc4c(=O)[nH]c(N)nc43)C(O)C2O)C(COP(=O)(O)OP(=O)(O)OP(=O)(O)C2CC2C2OC(n3c[n+](C)c4c(=O)[nH]c(N)nc43)C(O)C2CNC(C)=O)OC1n1cnc2c(N)ncnc21` (stereo not shown) [Compound 10] are 103 µg and 96.3%.
Regarding `CO[C@@H]1[C@H](OP(=O)(O)OC[C@H]2O[C@@H](n3cnc4c(=O)[nH]c(N)nc43)[C@H](O)[C@@H]2O)[C@@H](COP(=O)(O)OP(=O)(O)OP(=O)(O)OC2([C@H]3O[C@@H](n4c[n+](C)c5c(=O)[nH]c(N)nc54)[C@H](O)[C@@H]3O)CC2)O[C@H]1n1cnc2c(N)ncnc21` [Compound 31], the “Yield (µg) in 20 µL system” value in data set [1] was 112 µg. For the same compound, the “Capping rate (%)” value in data set [2] amounted to 98.5%. In data set [3], the “protein expression levels in mice” value is listed as “higher protein expression levels in mice compared to Comparative Example 1” and the “distribution” value is “mainly distributed in the liver”.
As to `CO[C@@H]1[C@H](OP(=O)(O)OC[C@H]2O[C@@H](n3cnc4c(=O)[nH]c(N)nc43)[C@H](O)[C@@H]2O)[C@@H](COP(O)(=S)OP(=O)(O)OP(=O)(O)C2CC2[C@H]2O[C@@H](n3c[n+](C)c4c(=O)[nH]c(N)nc43)[C@H](O)[C@@H]2O)O[C@H]1n1cnc2c(N)ncnc21` (stereo partly shown) [Compound 14], the “Yield (µg) in 20 µL system” value in data set [1] is 102 µg. The “Capping rate (%)” value in data set [2] is reported as 98.0%.
For the compound `COC1C(OP(=O)(O)OCC2OC(n3cnc4c(=O)[nH]c(N)nc43)C(O)C2O)C(COP(=O)(O)OP(=O)(O)OP(=O)(O)C2CC2C2OC(n3c[n+](C)c4c(=O)[nH]c(N)nc43)C(F)C2O)OC1n1cnc2c(N)ncnc21` (stereo not shown) [Compound 9], the “Yield (µg) in 20 µL system” value in data set [1] is reported as 98 µg. Besides, in data set [2], the “Capping rate (%)” value was 94.5%.
On to `CO[C@@H]1[C@H](OP(=O)(O)C2CC2[C@H]2O[C@@H](n3cnc4c(=O)[nH]c(N)nc43)[C@H](O)[C@@H]2O)[C@@H](COP(=O)(O)OP(=O)(O)OP(=O)(O)OC[C@H]2O[C@@H](n3c[n+](C)c4c(=O)[nH]c(N)nc43)[C@H](O)[C@@H]2O)O[C@H]1n1cnc2c(N)ncnc21` (stereo partly shown) [Compound 22], for which the “Yield (µg) in 20 µL system” value in data set [1] turned out to be 115 µg. Moreover, in data set [2], the “Capping rate (%)” value is on record as 96.0%.
Take `COC1C(O)C(n2c[n+](C)c3c(=O)[nH]c(N)nc32)OC1C1CC1P(=O)(O)OP(=O)(O)OP(=O)(O)OCC1OC(n2cnc3c(N)ncnc32)C(OC)C1OP(=O)(O)OCC1OC(n2cnc3c(=O)[nH]c(N)nc32)C(O)C1O` (stereo not shown) [Compound 2]: the “Yield (µg) in 20 µL system” value in data set [1] was 117 µg. Besides, the “Capping rate (%)” value in data set [2] was found to be 98.4%. Besides, in data set [3], the “protein expression levels in mice” value is “higher protein expression levels in mice compared to Comparative Example 1” and the “distribution” value is “mainly distributed in the liver”.
In the case of `COC1C(OP(=O)(O)OCC2OC(n3cnc4c(=O)[nH]c(N)nc43)C(O)C2O)C(COP(=O)(O)OP(=O)(O)OP(=O)(O)C2CC2C2OC(n3c[n+](C)c4c(=O)[nH]c(N)nc43)C(O)C2O)OC1n1cnc2c(N)ncnc21` (stereo not shown) [Compound 1], in data set [1], the “Yield (µg) in 20 µL system” value stood at 114 µg. Also, in data set [2], the “Capping rate (%)” value was 99.1%. Besides, in data set [3], the “protein expression levels in mice” value was “higher protein expression levels in mice compared to Comparative Example 1” and the “distribution” value is reported as “mainly distributed in the liver”.
Regarding `CO[C@@H]1[C@H](OP(=O)(O)OC[C@H]2O[C@@H](n3cnc4c(=O)[nH]c(N)nc43)[C@H](O)[C@@H]2O)[C@@H](COP(=O)(O)OP(=O)(O)OP(=O)(O)OC[C@H]2O[C@@H](n3c[n+](C)c4c(=O)[nH]c(N)nc43)[C@H](O)[C@@H]2O)O[C@H]1n1cnc2c(N)ncnc21` [Compound 43, reference compound], the “Yield (µg) in 20 µL system” value in data set [1] is 105 µg. Further, the “Capping rate (%)” value in data set [2] is on record as 96.1%. For the same compound, the “distribution” value in data set [3] was “mainly distributed in the liver”.
With `CO[C@@H]1[C@H](OP(=O)(O)OC[C@H]2O[C@@H](n3cnc4c(=O)[nH]c(N)nc43)[C@H](O)[C@@H]2O)[C@@H](C2CC2P(=O)(O)OP(=O)(O)OP(=O)(O)OC[C@H]2O[C@@H](n3c[n+](C)c4c(=O)[nH]c(N)nc43)[C@H](O)[C@@H]2O)O[C@H]1n1cnc2c(N)ncnc21` (stereo partly shown) [Compound 21], the “Yield (µg) in 20 µL system” value in data set [1] was 99 µg. Besides, the “Capping rate (%)” value in data set [2] came to 97.1%.
